From the OPERA property sets (Mansouri et al. 2018)

Conditions: for log10 BCF / log10 biotransformation half-life (days): fish

SMILES	melting point [°C]	boiling point [°C]	further results
O=C(O)C1c2ccccc2-c2ccccc21	230	–	–
ClCC(Cl)C(Cl)=C(Cl)C(Cl)CCl (configuration not stated)	58.5	–	–
COc1ccc(C(C)=O)cc1OC	51	287	–
CCCCCCCCOC(=O)CCCCC(=O)OCCCCCCCC	-70	–	log10 Henry constant (atm·m³/mol): -6.36; log10 vapour pressure (mmHg): -6.07
CN(C)c1ccccc1N(C)C	8.9	216	–
CC1CCCC(C)(C)C1 (configuration not stated)	-65.7	137	log10 vapour pressure (mmHg): 1.03
O=CC1CCCC1	–	134	–
CCOP(=S)(OCC)Oc1ccc([N+](=O)[O-])cc1	6.1	375	log10 Henry constant (atm·m³/mol): -6.53; log10 Koc (L/kg): 3.2; log10 vapour pressure (mmHg): -5.18; log10 BCF: 1.99; log10 biotransformation half-life (days): -0.41
CCCCC(CC)C(=O)OCC(COC(=O)C(CC)CCCC)(COC(=O)C(CC)CCCC)COC(=O)C(CC)CCCC (configuration not stated)	–	–	ready biodegradability: not readily biodegradable
C[C@]12CC[C@H](O)C[C@H]1CC[C@@H]1[C@@H]2[C@H](O)C[C@]2(C)[C@@H](C3=CC(=O)OC3)CC[C@]12O	280	–	–
C[C@@H]1O[C@@H]1P(=O)(O)O	94	–	–
CN(c1c(Br)cc(Br)cc1Br)c1c([N+](=O)[O-])cc([N+](=O)[O-])cc1C(F)(F)F	150	–	log10 vapour pressure (mmHg): -7.01
c1ccc(OCCOc2ccccc2)cc1	98	–	–
CCCCC(=O)OCCC	-70.7	168	–
Clc1cccc(Oc2ccccc2)c1	–	–	log10 vapour pressure (mmHg): -2.42
C[C@@H](Br)C(=O)Cl	–	132	–
Nc1cccc2cnccc12	128	–	–
Cc1c(Cc2cc(C(C)(C)C)c(O)c(C(C)(C)C)c2)c(C)c(Cc2cc(C(C)(C)C)c(O)c(C(C)(C)C)c2)c(C)c1Cc1cc(C(C)(C)C)c(O)c(C(C)(C)C)c1	244	–	ready biodegradability: not readily biodegradable
C=C(C)C=C(C)C	-114	93.2	–
COS(=O)(=O)[O-].C[N+]1(C)CCN(CC(O)(c2ccccc2)C2CCCCC2)CC1 (configuration not stated)	205	–	–
c1ccc([Si](c2ccccc2)(c2ccccc2)c2ccccc2)cc1	236	–	–
O=C[O-].[NH4+]	116	–	–

SMILES	melting point [°C]	boiling point [°C]	further results
CN(C)C(=O)CCCOC(=O)c1ccccc1	40.5	–	–
CCCCCNCCCCC	–	202	log10 vapour pressure (mmHg): -0.815; ready biodegradability: readily biodegradable
CC(=O)N[C@@H](CCC(=O)O)C(=O)O	199	–	–
CNC(=O)Oc1ccccc1C1OCCO1	114	–	log10 Koc (L/kg): 1.6; log10 vapour pressure (mmHg): -6.52
CCOC(=O)CC[C@H](N)C(=O)OCC.Cl	109	–	–
Ic1cccc2ccccc12	4.2	302	ready biodegradability: readily biodegradable
Cc1ccc(Br)s1	–	178	–
CCCCCCCC=CC=O	–	230	–
CC(C)CCOC(=O)c1ccccc1O	–	278	ready biodegradability: readily biodegradable
CC(C)C1CCCCC1	-89.4	155	log10 vapour pressure (mmHg): 0.681
CCC(=O)Oc1ccc(/C(CC)=C(\CC)c2ccc(OC(=O)CC)cc2)cc1	104	–	–
CCOC(=O)C(Br)(Br)Br	–	225	–
CN=C(O)Oc1cccc(C)c1	76.5	–	log10 vapour pressure (mmHg): -2.97; ready biodegradability: not readily biodegradable
O=C(O)/C=C\C(=O)O	130	–	ready biodegradability: readily biodegradable
Cl.N=C(N)SCc1ccc(Cl)cc1	197	–	–
OCCCCCC(F)(F)F	–	166	–
CCC[Si](C)(C)C	–	89	–
CCC(C)CO (configuration not stated)	–	128	log10 Henry constant (atm·m³/mol): -4.85; log10 vapour pressure (mmHg): 0.494
ClCc1cc(Cl)c(Cl)cc1Cl	–	273	–
CC(=O)OCCCCOC(C)=O	12	229	–
CN(C)c1ccc([N+](=O)[O-])cc1	164	–	log10 vapour pressure (mmHg): -5.22
CC(C)CCCCC(C)C	-54.9	160	–

SMILES	melting point [°C]	boiling point [°C]	further results
O=C(O)C(F)(F)C(F)(F)C(F)(F)C(F)(F)C(=O)O	134	–	–
CCC(C)c1cccc(C(C)CC)c1O (configuration not stated)	-42	258	ready biodegradability: not readily biodegradable; log10 BCF: 2.39; log10 biotransformation half-life (days): -0.22
N#CCc1ccc(Br)cc1	48	–	–
COC(=O)c1ccc(O)c(N)c1	143	–	–
NS(=O)(=O)c1cc(C(=O)c2ccc(O)cc2)cs1	192	–	–
CS(=O)(=O)c1c(F)c(F)c(F)c(F)c1F	–	–	log10 Koc (L/kg): 1.46
CCCC(C=O)CCC	–	160	–
Oc1ccc(C2CCCCC2)cc1Cl	40.5	–	–
Brc1ccccc1	-30.6	156	log10 Henry constant (atm·m³/mol): -2.61; log10 Koc (L/kg): 2.49; log10 vapour pressure (mmHg): 0.621; ready biodegradability: not readily biodegradable; log10 BCF: 1.36; log10 biotransformation half-life (days): -1.19
C#CCN1C(=O)CN=C(c2ccccc2)c2cc(Cl)ccc21	141	–	–
CC1(C)S[C@@H]2[C@H](N3C(=O)C(c4ccccc4)NC3(C)C)C(=O)N2[C@H]1C(=O)O (some centres not stated)	190	–	–
NCCCN1CCN(CCCN)CC1	15	–	–
C=C(C)C(=O)OCCCCOC(=O)C(=C)C	226	–	–
CC(=O)N(C)C(C)=O	-25	195	–
Cn1cnc2nc(N)[nH]c(=O)c21	370	–	–
CCOC(=O)c1ccc2c(c1)OCO2	18.5	286	–
ClC=CCCl	–	–	ready biodegradability: not readily biodegradable
O=c1n(Cl)c(=O)n(Cl)c(=O)n1Cl	–	–	ready biodegradability: not readily biodegradable
CCOc1ccc(NC(=O)CN)cc1	100	–	–
O=[N+]([O-])c1cc(F)ccc1F	-11.7	206	–
CCCOC(=O)c1ccccc1O	97	239	–
CC(O)COCC(C)O (configuration not stated)	–	233	ready biodegradability: not readily biodegradable; log10 BCF: 0.66

SMILES	melting point [°C]	boiling point [°C]	further results
O=C(O)c1cc(=O)c2cccc(O)c2[nH]1	289	–	–
CCC(=O)OCCC(C)C	–	160	–
CC1CCCc2ccccc21 (configuration not stated)	–	221	–
Nc1nc(Cl)cc(Cl)n1	220	–	–
C/C=C(/C)C(C)C	-121	89.9	–
COP(=S)(OC)Oc1ccc(S(C)(=O)=O)c(C)c1	–	–	log10 BCF: 0.51; log10 biotransformation half-life (days): -0.03
CCN1CN(CC)CN(CC)C1	70	208	ready biodegradability: readily biodegradable
CC(=O)CC(=O)Nc1ccccc1Cl	105	–	–
CC(=O)Oc1ccc(C(=C2CCCCC2)c2ccc(OC(C)=O)cc2)cc1	136	–	–
COc1ccccc1Br	2.5	216	–
CCCCCS(=O)(=O)O	15.9	–	–
CCCCCCOC(=O)CCCCC	-55	246	–
O=[N+]([O-])c1cncn1CCN1CCOCC1	110	–	–
O=c1cc(CN2CCOCC2)c2cc(O)c(O)cc2o1	232	–	–
CCC1CCC(C)C1 (configuration not stated)	–	–	log10 vapour pressure (mmHg): 0.799
Nc1nc2nn[nH]c2c(=O)[nH]1	300	–	–
O=S(=O)(O)C(F)(F)F	–	166	log10 vapour pressure (mmHg): -1
CN1C(=O)CN=C(c2ccccc2F)c2cc(Cl)ccc21	296	–	–
O=Cc1cc2c(cc1[N+](=O)[O-])OCO2	93.5	–	–
